Test results: patent publication US9084828B2, “Oligomer-protein tyrosine kinase inhibitor conjugates” (Nektar Therapeutics, priority 2009, dated 2015)

Experiments:
Format in all cases: biochemical
[1] = target: SRC (Homo sapiens, UniProt P12931); assay: Activity against various protein tyrosine kinases: SRC
[2] = target: FGFR3 (Homo sapiens, UniProt P22607); assay: Activity against various protein tyrosine kinases: FGFR3
[3] = target: EGFR (Homo sapiens, UniProt P00533); assay: Activity against various protein tyrosine kinases: EGFR
Sequence of EGFR (P00533 25-1210, species assumed): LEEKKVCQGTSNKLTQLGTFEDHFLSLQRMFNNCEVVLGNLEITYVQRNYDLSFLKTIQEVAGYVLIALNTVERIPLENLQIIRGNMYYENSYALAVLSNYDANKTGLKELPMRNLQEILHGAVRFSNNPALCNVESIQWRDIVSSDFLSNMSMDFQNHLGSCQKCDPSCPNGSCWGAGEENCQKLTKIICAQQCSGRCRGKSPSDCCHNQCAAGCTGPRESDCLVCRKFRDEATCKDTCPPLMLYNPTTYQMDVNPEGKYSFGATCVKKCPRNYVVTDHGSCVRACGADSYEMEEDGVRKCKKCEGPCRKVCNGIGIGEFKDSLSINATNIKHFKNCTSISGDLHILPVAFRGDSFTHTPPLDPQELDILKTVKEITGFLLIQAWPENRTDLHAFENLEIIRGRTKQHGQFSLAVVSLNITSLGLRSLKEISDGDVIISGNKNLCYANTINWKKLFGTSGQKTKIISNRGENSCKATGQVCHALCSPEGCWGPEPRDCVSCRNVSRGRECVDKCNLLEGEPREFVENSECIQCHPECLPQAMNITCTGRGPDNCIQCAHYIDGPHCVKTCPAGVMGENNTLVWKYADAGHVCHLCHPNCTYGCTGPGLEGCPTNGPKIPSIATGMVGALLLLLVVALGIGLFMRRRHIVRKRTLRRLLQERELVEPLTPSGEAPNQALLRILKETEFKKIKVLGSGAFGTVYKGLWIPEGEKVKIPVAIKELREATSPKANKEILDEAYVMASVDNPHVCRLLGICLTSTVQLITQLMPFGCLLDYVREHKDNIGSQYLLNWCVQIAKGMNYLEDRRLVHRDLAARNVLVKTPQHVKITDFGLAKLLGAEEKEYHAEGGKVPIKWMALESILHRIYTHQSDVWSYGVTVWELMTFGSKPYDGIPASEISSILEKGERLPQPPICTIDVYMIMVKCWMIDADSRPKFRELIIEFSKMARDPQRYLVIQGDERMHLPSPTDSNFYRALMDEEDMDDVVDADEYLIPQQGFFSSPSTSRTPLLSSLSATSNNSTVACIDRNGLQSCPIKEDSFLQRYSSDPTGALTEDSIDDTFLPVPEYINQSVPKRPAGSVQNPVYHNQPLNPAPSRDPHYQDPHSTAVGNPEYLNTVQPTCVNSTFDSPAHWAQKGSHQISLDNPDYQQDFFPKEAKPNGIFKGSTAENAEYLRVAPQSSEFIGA

[4] = target: CHK2 (Homo sapiens, UniProt O96017); assay: Activity against various protein tyrosine kinases: CHK2
Sequence of CHK2 (O96017 whole entry, species assumed): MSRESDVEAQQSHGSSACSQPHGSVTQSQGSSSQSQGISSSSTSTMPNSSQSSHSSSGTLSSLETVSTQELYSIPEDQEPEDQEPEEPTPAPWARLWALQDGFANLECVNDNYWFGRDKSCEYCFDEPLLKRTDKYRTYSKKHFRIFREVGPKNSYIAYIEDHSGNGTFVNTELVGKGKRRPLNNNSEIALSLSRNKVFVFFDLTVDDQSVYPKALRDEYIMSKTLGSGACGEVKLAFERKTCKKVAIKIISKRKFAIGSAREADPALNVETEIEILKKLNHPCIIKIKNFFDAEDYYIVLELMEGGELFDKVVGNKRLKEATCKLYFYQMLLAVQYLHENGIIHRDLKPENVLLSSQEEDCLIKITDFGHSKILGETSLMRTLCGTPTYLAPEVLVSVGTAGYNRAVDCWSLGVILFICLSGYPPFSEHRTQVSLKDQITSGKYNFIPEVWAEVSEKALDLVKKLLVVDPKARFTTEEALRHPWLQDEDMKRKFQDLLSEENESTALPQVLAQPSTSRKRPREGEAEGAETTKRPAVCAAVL

[5] = target: AKT2 (Homo sapiens, UniProt P31751); assay: Activity against various protein tyrosine kinases: AKT2
Sequence of AKT2 (P31751 whole entry, species assumed): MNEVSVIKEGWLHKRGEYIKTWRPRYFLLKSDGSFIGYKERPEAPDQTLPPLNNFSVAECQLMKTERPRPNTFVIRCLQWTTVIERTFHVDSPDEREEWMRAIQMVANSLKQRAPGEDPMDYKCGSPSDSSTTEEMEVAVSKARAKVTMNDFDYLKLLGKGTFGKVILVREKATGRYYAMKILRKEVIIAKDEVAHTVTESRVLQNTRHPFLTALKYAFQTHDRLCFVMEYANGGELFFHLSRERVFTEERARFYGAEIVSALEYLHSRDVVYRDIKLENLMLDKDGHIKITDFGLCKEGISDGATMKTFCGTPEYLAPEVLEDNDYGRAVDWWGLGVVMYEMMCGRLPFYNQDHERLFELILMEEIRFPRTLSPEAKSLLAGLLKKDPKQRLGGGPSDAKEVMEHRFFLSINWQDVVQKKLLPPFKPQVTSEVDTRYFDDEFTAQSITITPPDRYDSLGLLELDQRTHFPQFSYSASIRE

[6] = target: T1, PKG1-beta (Homo sapiens, UniProt Q13976); assay: Activity against various protein tyrosine kinases: PKG1-beta
T1 sequence (Q13976 1-686 isoform Q13976-2): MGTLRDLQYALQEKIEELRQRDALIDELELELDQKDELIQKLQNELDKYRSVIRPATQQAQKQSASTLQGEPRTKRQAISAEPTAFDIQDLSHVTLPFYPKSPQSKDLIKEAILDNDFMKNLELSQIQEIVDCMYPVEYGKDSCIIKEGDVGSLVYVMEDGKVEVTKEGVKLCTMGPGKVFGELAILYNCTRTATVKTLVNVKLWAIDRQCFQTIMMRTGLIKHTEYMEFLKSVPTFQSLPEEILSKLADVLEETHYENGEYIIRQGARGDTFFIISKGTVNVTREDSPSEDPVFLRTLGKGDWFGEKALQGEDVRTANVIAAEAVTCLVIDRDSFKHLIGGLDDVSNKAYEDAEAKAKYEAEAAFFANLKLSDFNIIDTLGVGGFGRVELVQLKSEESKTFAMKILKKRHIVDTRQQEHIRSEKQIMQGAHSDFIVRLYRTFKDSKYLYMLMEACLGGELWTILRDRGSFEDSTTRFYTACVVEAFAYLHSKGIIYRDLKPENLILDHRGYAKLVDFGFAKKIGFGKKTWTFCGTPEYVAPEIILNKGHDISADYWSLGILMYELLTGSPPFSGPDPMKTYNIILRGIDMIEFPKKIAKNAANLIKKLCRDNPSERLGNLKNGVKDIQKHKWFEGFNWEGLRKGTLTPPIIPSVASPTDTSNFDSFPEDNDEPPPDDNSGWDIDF

[7] = target: T2, PKD2 (Homo sapiens, UniProt Q9BZL6); assay: Activity against various protein tyrosine kinases: PKD2
T2 sequence (Q9BZL6 1-878): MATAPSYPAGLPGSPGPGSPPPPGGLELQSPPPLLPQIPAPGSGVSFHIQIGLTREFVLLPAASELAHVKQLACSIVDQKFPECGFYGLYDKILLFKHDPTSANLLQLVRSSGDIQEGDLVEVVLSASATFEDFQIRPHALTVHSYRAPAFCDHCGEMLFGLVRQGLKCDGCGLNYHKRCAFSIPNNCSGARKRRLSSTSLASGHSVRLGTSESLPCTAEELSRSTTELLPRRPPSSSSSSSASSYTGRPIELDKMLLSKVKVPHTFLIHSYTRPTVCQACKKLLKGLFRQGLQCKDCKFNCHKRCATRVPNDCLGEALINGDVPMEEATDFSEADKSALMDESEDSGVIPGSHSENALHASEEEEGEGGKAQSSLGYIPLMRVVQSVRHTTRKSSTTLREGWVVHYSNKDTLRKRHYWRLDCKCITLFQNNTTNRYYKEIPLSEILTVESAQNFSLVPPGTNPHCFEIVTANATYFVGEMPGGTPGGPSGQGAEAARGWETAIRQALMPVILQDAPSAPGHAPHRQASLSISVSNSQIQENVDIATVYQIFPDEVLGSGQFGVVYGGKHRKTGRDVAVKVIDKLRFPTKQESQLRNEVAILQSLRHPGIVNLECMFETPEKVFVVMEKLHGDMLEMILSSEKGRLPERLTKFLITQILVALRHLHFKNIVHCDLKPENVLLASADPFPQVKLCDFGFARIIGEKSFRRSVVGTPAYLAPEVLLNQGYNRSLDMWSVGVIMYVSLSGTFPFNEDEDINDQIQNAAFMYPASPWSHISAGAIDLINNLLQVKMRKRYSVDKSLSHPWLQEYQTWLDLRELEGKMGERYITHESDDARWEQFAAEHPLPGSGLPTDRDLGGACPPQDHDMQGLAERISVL

[8] = target: ABL(H396P) (Homo sapiens, UniProt P00519, H396P); assay: Activity against various protein tyrosine kinases: ABL(H396P)
Experimental: (§1) Using techniques know those of ordinary skill in the art, compounds were tested for activity against various protein tyrosine kinases.

[9] = target: AurB (Homo sapiens, UniProt Q96GD4); assay: Activity against various protein tyrosine kinases: AurB
Sequence of AurB (Q96GD4 whole entry): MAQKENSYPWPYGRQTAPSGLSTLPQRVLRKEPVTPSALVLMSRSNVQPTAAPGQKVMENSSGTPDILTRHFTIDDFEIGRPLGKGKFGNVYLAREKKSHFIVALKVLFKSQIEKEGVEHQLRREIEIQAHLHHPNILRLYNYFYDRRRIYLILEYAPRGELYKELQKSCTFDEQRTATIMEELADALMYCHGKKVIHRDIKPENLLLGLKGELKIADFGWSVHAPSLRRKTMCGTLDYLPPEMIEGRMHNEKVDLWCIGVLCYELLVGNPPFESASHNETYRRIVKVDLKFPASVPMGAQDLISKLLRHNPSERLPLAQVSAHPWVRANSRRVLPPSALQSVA

[10] = target: BTK (Homo sapiens, UniProt Q06187); assay: Activity against various protein tyrosine kinases: BTK
Sequence of BTK (Q06187 whole entry, species assumed): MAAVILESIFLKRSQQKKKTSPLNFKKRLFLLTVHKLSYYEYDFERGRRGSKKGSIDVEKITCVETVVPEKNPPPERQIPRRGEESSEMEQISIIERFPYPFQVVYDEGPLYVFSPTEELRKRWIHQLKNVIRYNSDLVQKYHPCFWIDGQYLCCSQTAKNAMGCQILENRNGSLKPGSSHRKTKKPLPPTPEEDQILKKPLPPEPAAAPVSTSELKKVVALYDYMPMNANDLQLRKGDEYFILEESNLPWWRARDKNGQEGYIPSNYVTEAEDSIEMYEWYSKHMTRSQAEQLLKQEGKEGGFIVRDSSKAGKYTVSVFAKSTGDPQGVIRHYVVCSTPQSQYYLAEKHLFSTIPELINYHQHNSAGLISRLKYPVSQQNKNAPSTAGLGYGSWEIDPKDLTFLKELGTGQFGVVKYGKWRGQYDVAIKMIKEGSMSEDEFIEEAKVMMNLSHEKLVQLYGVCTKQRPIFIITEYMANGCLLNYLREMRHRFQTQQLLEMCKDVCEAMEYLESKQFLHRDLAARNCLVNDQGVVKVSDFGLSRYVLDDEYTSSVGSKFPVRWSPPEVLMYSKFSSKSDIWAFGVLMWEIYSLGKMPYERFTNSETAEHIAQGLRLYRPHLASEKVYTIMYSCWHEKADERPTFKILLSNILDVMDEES
Experimental: as §1

[11] = target: MET (Homo sapiens, UniProt P08581); assay: Activity against various protein tyrosine kinases: MET
[12] = target: Erk1 (Homo sapiens, UniProt P27361); assay: Activity against various protein tyrosine kinases: Erk1
[13] = target: EPHA2 (Homo sapiens, UniProt P29317); assay: Activity against various protein tyrosine kinases: EPHA2
[14] = target: p38-beta2 (Homo sapiens, UniProt Q15759); assay: Activity against various protein tyrosine kinases: p38-beta2
[15] = target: LCK (Homo sapiens, UniProt P06239); assay: Activity against various protein tyrosine kinases: LCK
[16] = target: FGFR1 (Homo sapiens, UniProt P11362); assay: Activity against various protein tyrosine kinases: FGFR1
Experimental: as §1

[17] = target: AKT3 (Homo sapiens, UniProt Q9Y243); assay: Activity against various protein tyrosine kinases: AKT3
Sequence of AKT3 (Q9Y243 whole entry, species assumed): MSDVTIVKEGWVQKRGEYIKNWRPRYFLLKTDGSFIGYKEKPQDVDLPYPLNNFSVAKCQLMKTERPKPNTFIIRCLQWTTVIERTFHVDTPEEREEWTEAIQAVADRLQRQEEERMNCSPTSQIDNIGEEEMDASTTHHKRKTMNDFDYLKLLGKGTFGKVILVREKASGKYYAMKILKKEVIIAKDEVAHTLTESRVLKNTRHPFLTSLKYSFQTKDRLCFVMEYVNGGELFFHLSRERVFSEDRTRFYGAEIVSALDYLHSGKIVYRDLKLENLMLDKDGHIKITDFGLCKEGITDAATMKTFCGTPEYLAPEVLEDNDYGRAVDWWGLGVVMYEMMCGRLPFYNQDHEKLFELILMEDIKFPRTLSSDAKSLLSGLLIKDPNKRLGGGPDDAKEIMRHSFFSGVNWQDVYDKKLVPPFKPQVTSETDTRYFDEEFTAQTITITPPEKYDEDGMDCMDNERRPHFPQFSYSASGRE

Sequence of FGFR3 (P22607 23-806, species assumed): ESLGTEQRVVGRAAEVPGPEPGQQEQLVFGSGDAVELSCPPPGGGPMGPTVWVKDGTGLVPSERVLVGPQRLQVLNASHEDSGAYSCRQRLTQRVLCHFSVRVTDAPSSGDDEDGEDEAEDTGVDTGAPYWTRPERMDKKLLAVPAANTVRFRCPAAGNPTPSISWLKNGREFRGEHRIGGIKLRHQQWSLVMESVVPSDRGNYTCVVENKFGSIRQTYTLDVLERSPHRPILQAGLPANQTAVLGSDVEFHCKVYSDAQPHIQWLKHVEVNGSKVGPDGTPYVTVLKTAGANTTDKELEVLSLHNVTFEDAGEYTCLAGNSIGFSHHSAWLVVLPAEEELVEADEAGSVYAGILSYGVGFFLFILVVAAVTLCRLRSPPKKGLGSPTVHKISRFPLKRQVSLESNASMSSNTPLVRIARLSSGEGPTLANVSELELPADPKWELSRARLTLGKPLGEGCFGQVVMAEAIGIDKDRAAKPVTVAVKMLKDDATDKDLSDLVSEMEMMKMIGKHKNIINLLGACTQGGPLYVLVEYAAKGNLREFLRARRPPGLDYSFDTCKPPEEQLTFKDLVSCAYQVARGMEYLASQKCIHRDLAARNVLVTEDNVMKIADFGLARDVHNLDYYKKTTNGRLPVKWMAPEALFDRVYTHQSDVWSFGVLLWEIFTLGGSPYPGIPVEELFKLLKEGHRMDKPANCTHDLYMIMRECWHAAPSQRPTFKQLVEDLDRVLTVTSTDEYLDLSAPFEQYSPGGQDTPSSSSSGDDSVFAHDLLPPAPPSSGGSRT
Sequence of SRC (P12931 whole entry, species assumed): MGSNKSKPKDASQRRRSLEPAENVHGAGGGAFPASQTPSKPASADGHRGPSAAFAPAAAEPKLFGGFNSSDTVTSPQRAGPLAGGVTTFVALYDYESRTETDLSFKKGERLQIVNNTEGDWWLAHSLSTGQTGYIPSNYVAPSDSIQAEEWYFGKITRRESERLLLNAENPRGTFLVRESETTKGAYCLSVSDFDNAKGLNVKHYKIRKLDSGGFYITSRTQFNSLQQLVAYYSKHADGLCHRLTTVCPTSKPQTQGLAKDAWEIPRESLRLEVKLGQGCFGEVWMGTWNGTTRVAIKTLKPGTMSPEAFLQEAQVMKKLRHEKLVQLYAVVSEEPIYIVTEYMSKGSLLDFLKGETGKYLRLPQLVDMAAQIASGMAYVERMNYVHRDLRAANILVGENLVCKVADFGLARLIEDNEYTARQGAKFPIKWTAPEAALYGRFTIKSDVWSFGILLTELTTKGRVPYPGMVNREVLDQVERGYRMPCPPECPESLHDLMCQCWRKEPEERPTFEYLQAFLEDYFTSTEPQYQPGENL

| SMILES | % Inhibition at 10 nM [1] | % Inhibition at 1 μM [1] | % Inhibition at 10 nM [2] | % Inhibition at 1 μM [2] | % Inhibition at 10 nM [3] | % Inhibition at 1 μM [3] | % Inhibition at 10 nM [4] | % Inhibition at 1 μM [4] | % Inhibition at 10 nM [5] | % Inhibition at 1 μM [5] | % Inhibition at 10 nM [6] | % Inhibition at 1 μM [6] | % Inhibition at 10 nM [7] | % Inhibition at 1 μM [7] | % Inhibition at 10 nM [8] | % Inhibition at 1 μM [8] | % Inhibition at 10 nM [9] | % Inhibition at 1 μM [9] | % Inhibition at 10 nM [10] | % Inhibition at 1 μM [10] | also measured |
| --- | --- | --- | --- | --- | --- | --- | --- | --- | --- | --- | --- | --- | --- | --- | --- | --- | --- | --- | --- | --- | --- |
| COCCOCCOCCNC(=O)OCCN1CCN(c2cc(Nc3ncc(C(=O)Nc4c(C)cccc4Cl)s3)nc(C)n2)CC1 [mPEG3-NHCOO-Dasatinib] | 99% | 99% | 3% | 11% | 3% | 76% | 1% | 11% | 9% | 7% | −2% | 0% | 12% | −5% | 99% | 99% | −1% | 4% | 99% | 100% | % Inhibition at 10 nM [11]: 3%; % Inhibition at 1 μM [11]: 0%; % Inhibition at 10 nM [12]: 3%; % Inhibition at 1 μM [12]: 2%; % Inhibition at 10 nM [13]: 40%; % Inhibition at 1 μM [13]: 100%; % Inhibition at 10 nM [14]: 3%; % Inhibition at 1 μM [14]: 48%; % Inhibition at 10 nM [15]: 97%; % Inhibition at 1 μM [15]: 98%; % Inhibition at 10 nM [16]: 11%; % Inhibition at 1 μM [16]: −3%; % Inhibition at 10 nM [17]: 0%; % Inhibition at 1 μM [17]: −1% |
| COCCOCCOCCOCCOCCOCCOCCNC(=O)OCCN1CCN(c2cc(Nc3ncc(C(=O)Nc4c(C)cccc4Cl)s3)nc(C)n2)CC1 [mPEG7-NHCOO-Dasatinib] | 98% | 98% | 2% | 10% | 6% | 62% | 2% | 1% | 3% | 3% | −3% | −3% | 3% | 4% | 99% | 99% | 0% | 4% | 99% | 100% | % Inhibition at 10 nM [11]: 1%; % Inhibition at 1 μM [11]: 1%; % Inhibition at 10 nM [12]: 3%; % Inhibition at 1 μM [12]: 4%; % Inhibition at 10 nM [13]: 36%; % Inhibition at 1 μM [13]: 101%; % Inhibition at 10 nM [14]: 0%; % Inhibition at 1 μM [14]: 35%; % Inhibition at 10 nM [15]: 98%; % Inhibition at 1 μM [15]: 98%; % Inhibition at 10 nM [16]: 2%; % Inhibition at 1 μM [16]: 3%; % Inhibition at 10 nM [17]: −3%; % Inhibition at 1 μM [17]: −2% |
